# Test results as given in patent US10370356B2, “Pyridinone dicarboxamide for use as bromodomain inhibitors” (GlaxoSmithKline Intellectual Property (No. 2) Limited, priority 2015, dated 2019).
# Where a name gives a salt, the structure may show the parent alone.
# Biological target: T1, BRD4 BD2 (Homo sapiens, UniProt O60885, Y97A)
# T1 construct: BRD4 (1-477) (Y97A) and (Y390A); made in house; host or cells: E. coli (pET15b vector)
# Experiment: BRD4 BD2 mutant TR-FRET competition assay
# Type: binding
# Conditions: average of N recorded values, read-out: BRD4 BD2 IC50 (average value) (converted)
row,Structure (SMILES),IC50 [nM]
1,"CNC(=O)c1cc(C(=O)NCCCC2CCN(C)CC2)cn(Cc2ccccc2)c1=O [Example 7, 1-Benzyl-N^3-methyl-N^5-(3-(1-methylpiperidin-4-yl)propyl)-2-oxo-1,2-dihydropyridine-3,5-dicarboxamide]",31.6
2,"CNC(=O)c1cc(C(=O)NCCCC2CCN(CCF)CC2)cn(Cc2ccccc2)c1=O [Example 29, 1-Benzyl-N^5-(3-(1-(2-fluoroethyl)piperidin-4-yl)propyl)-N^3-methyl-2-oxo-1,2-dihydropyridine-3,5-dicarboxamide. formic acid salt]",25.1
3,"CNC(=O)c1cc(C(=O)NCCC2CCNCC2)cn(Cc2cccc3[nH]ccc23)c1=O [Example 56, 1-((1H-Indol-4-yl)methyl)-N^3-methyl-2-oxo-N5-(2-(piperidin-4-yl)ethyl)-1,2-dihydropyridine-3,5-dicarboxamide]",15.8
4,"CNC(=O)c1cc(C(=O)NCCCC2CCNCC2)cn(Cc2cccc(OCCO)c2)c1=O [Example 23, 1-(3-(2-Hydroxyethoxy)benzyl)-N^3-methyl-2-oxo-N^5-(3-(piperidin-4-yl)propyl)-1,2-dihydropyridine-3,5-dicarboxamide]",50.1

# Same assay, conditions: read-out: pIC50 in the BRD4 BD2 assay (converted)
row,Structure (SMILES),IC50 [nM]
1,CNC(=O)c1cc(C(=O)NCCCC2CCN(CC(F)F)CC2)cn(Cc2ccccc2)c1=O [Example 28],≤ 100
2,"CNC(=O)c1cc(C(=O)NCCCC2CCNCC2)cn(Cc2ccc(F)c(C)c2)c1=O [Example 21, 1-(4-Fluoro-3-methylbenzyl)-N^3-methyl-2-oxo-N^5-(3-(piperidin-4-yl)propyl)-1,2-dihydropyridine-3,5-dicarboxamide]",≤ 100
3,"CNC(=O)c1cc(C(=O)N[C@H]2[C@@H]3CN(CCNC(=O)OC(C)(C)C)C[C@@H]32)cn(Cc2cccc3[nH]ccc23)c1=O [Example 85, tert-Butyl (2-((1R,5S,6s)-6-(1-((1H-indol-4-yl)methyl)-5-(methylcarbamoyl)-6-oxo-1,6-dihydropyridine-3-carboxamido)-3-azabicyclo[3.1.0]hexan-3-yl)ethyl)carbamate]",≤ 100
4,"CNC(=O)c1cc(C(=O)N[C@H]2[C@@H]3COC[C@@H]32)cn(Cc2ccccc2)c1=O [Example 69, 1-Benzyl-N^5-((1R,5S,6r)-3-oxabicyclo[3.1.0]hexan-6-yl)-N^3-methyl-2-oxo-1,2-dihydropyridine-3,5-dicarboxamide]",≤ 100
5,"CNC(=O)c1cc(C(=O)NCCCC2CCN(C)CC2)cn(Cc2ccccc2)c1=O [Example 7, 1-Benzyl-N^3-methyl-N^5-(3-(1-methylpiperidin-4-yl)propyl)-2-oxo-1,2-dihydropyridine-3,5-dicarboxamide]",≤ 100
6,"CNC(=O)c1cc(C(=O)NCCCC2(O)CCNCC2)cn(Cc2ccccc2)c1=O [Example 57, 1-Benzyl-N^5-(3-(4-hydroxypiperidin-4-yl)propyl)-N^3-methyl-2-oxo-1,2-dihydropyridine-3,5-dicarboxamide]",≤ 100
7,"CNC(=O)c1cc(C(=O)NCCC2CCOC2)cn(Cc2ccccc2)c1=O (stereo not shown) [Example 9, 1-Benzyl-N^3-methyl-2-oxo-N^5-(2-(tetrahydrofuran-3-yl)ethyl)-1,2-dihydropyridine-3,5-dicarboxamide]",100 to 1000
8,CNC(=O)c1cc(C(=O)NCCCC2CCN(CC(F)(F)F)CC2)cn(Cc2ccccc2)c1=O [Example 10],≤ 100
9,"CNC(=O)c1cc(C(=O)NCCCC2CCNCC2)cn(Cc2ccc(F)cc2)c1=O [Example 22, 1-(4-Fluorobenzyl)-N^3-methyl-2-oxo-N-(3-(piperidin-4-1)propyl)-1,2-dihydropyridine-3,5-dicarboxamide]",≤ 100
10,"CNC(=O)c1cc(C(=O)NC2CC3OCCCC23)cn(Cc2ccccc2)c1=O (stereo not shown) [Example 35, 1-Benzyl-N^5-(2-oxabicyclo[4.2.0]octan-7-yl)-N^3-methyl-2-oxo-1,2-dihydropyridine-3,5-dicarboxamide]",1000 to 100000
11,"CNC(=O)c1cc(C(=O)NCCCC2CCN(CCF)CC2)cn(Cc2ccccc2)c1=O [Example 29, 1-Benzyl-N^5-(3-(1-(2-fluoroethyl)piperidin-4-yl)propyl)-N^3-methyl-2-oxo-1,2-dihydropyridine-3,5-dicarboxamide. formic acid salt]",≤ 100
12,"CNC(=O)c1cc(C(=O)NCC2CCS(=O)(=O)CC2)cn(Cc2ccccc2)c1=O [Example 53, 1-Benzyl-N^5-((1,1-dioxidotetrahydro-2H-thiopyran-4-yl)methyl)-N^3-methyl-2-oxo-1,2-dihydropyridine-3,5-dicarboxamide]",1000 to 100000
13,CNC(=O)c1cc(C(=O)N[C@H]2[C@@H]3CNC[C@@H]32)cn(Cc2cccc3[nH]ccc23)c1=O [Example 80],≤ 100
14,"CNC(=O)c1cc(C(=O)NCCC2CCS(=O)(=O)CC2)cn(Cc2ccccc2)c1=O [Example 13, 1-Benzyl-N^5-(2-(1,1-dioxidotetrahydro-2H-thiopyran-4-yl)ethyl)-N^3-methyl-2-oxo-1,2-dihydropyridine-3,5-dicarboxamide]",100 to 1000
15,"CNC(=O)c1cc(C(=O)NCCCC2CCNCC2)cn(Cc2cccc(C)c2)c1=O [Example 15, N^3-Methyl-1-(3-methylbenzyl)-2-oxo-N^5-(3-(piperidin-4-yl)propyl)-1,2-dihydropyridine-3,5-dicarboxamide]",≤ 100
16,"CNC(=O)c1cc(C(=O)NCCCN2CCN(C)CC2)cn(Cc2ccccc2)c1=O [Example 51, 1-Benzyl-N^3-methyl-N^5-(3-(4-methylpiperazin-1-yl)propyl)-2-oxo-1,2-dihydropyridine-3,5-dicarboxamide]",100 to 1000
17,"CNC(=O)c1cc(C(=O)NCCC2CCCOC2)cn(Cc2ccccc2)c1=O (stereo not shown) [Example 31, 1-Benzyl-N^3-methyl-2-oxo-N^5-(2-(tetrahydro-2H-pyran-3-yl)ethyl)-1,2-dihydropyridine-3,5-dicarboxamide]",100 to 1000
18,"CNC(=O)c1cc(C(=O)NC[C@@H]2CCCOC2)cn(Cc2ccccc2)c1=O [Example 47, (S)-1-Benzyl-N^3-methyl-2-oxo-N^5-((tetrahydro-2H-pyran-3-yl)methyl)-1,2-dihydropyridine-3,5-dicarboxamide]",100 to 1000

row,Structure (SMILES),IC50 [nM]
1,"CNC(=O)c1cc(C(=O)NC2CCCOC2)cn(Cc2ccccc2)c1=O (stereo not shown) [Example 50, 1-Benzyl-N^3-methyl-2-oxo-N^5-(tetrahydro-2H-pyran-3-yl)-1,2-dihdyropyridine-3,5-dicarboxamide]",100 to 1000
2,"CNC(=O)c1cc(C(=O)NCCC2CCNCC2)cn(Cc2cccc3[nH]ccc23)c1=O [Example 56, 1-((1H-Indol-4-yl)methyl)-N^3-methyl-2-oxo-N5-(2-(piperidin-4-yl)ethyl)-1,2-dihydropyridine-3,5-dicarboxamide]",≤ 100
3,"CNC(=O)c1cc(C(=O)NCCC2CCNCC2)cn([C@H](C)c2ccccc2)c1=O [Example 18, (R)-N^3-Methyl-2-oxo-1-(1-phenylethyl)-N^5-(2-(piperidin-4-yl)ethyl)-1,2-dihydropyridine-3,5-dicarboxamide]",≤ 100
4,"CNC(=O)c1cc(C(=O)NC2CN(S(C)(=O)=O)C2)cn(Cc2ccccc2)c1=O [Example 90, 1-benzyl-N^3-methyl-N^5-(1-(methylsulfonyl)azetidin-3-yl)-2-oxo-1,2-dihydropyridine-3,5-dicarboxamide]",100 to 1000
5,"CNC(=O)c1cc(C(=O)NCCCC2CCN(C(C)=O)CC2)cn(Cc2ccccc2)c1=O [Example 8, N^5-(3-(1-Acetylpiperidin-4-yl)propyl)-1-benzyl-N^3-methyl-2-oxo-1,2-dihydropyridine-3,5-dicarboxamide]",100 to 1000
6,"CNC(=O)c1cc(C(=O)NC2CCS(=O)(=O)C2)cn(Cc2ccccc2)c1=O (stereo not shown) [Example 43, 1-Benzyl-N^5-(1,1-dioxidotetrahydrothiophen-3-yl)-N^3-methyl-2-oxo-1,2-dihydroypridine-3,5-dicarboxamide]",100 to 1000
7,"CNC(=O)c1cc(C(=O)NCCC2CCNCC2)cn(Cc2ccccc2)c1=O [Example 2, 1-Benzyl-N^3-methyl-2-oxo-N^5-(2-(piperidin-4-yl)ethyl)-1,2-dihydropyridine-3,5-dicarboxamide]",≤ 100
8,"CNC(=O)c1cc(C(=O)NCCC2CCNCC2)cn(Cc2cccc(C)c2)c1=O [Example 16, N^3-Methyl-1-(3-methylbenzyl)-2-oxo-N^5-(2-(piperidin-4-yl)ethyl)-1,2-dihydropyridine-3,5-dicarboxamide]",≤ 100
9,"CNC(=O)c1cc(C(=O)NCCC2CN(C(C)=O)CCO2)cn(Cc2ccccc2)c1=O (stereo not shown) [Example 65, N^5-(2-(4-acetylmorpholin-2-yl)ethyl)-1-benzyl-N^3-methyl-2-oxo-1,2-dihydropyridine-3,5-dicarboxamide]",100 to 1000
10,"CNC(=O)c1cc(C(=O)NCCC2CCN(C)C2)cn(Cc2ccccc2)c1=O (stereo not shown) [Example 36, 1-Benzyl-N^3-methyl-N^5-(2-(1-methylpyrrolidin-3-yl)ethyl)-2-oxo-1,2-dihydropyridine-3,5-dicarboxamide]",100 to 1000
11,"CNC(=O)c1cc(C(=O)NCCCN2CCS(=O)(=O)CC2)cn(Cc2ccccc2)c1=O [Example 52, 1-Benzyl-N^5-(3-(1,1-dioxidothiomorpholino)propyl)-N^3-methyl-2-oxo-1,2-dihydropyridine-3,5-dicarboxamide]",100 to 1000
12,"CNC(=O)c1cc(C(=O)NCCC2CCNCC2)cn(Cc2cccc(OCCO)c2)c1=O [Example 24, 1-(3-(2-Hydroxyethoxy)benzyl)-N^3-methyl-2-oxo-N^5-(2-(piperidin-4-yl)ethyl)-1,2-dihydropyridine-3,5-dicarboxamide]",≤ 100
13,"CNC(=O)c1cc(C(=O)NCCCC2CCNCC2)cn(Cc2cccc(OC)c2)c1=O [Example 19, 1-(3-Methoxybenzyl)-N^3-methyl-2-oxo-N^5-(3-(piperidin-4-yl)propyl)-1,2-dihydropyridine-3,5-dicarboxamide]",≤ 100
14,"CNC(=O)c1cc(C(=O)NCCCC2CCNCC2)cn(Cc2cccc(C)c2F)c1=O [Example 26, 1-(2-Fluoro-3-methylbenzyl)-N^3-methyl-2-oxo-N^5-(3-(piperidin-4-yl)propyl)-1,2-dihydropyridine-3,5-dicarboxamide]",≤ 100
15,CCNC(=O)c1cc(C(=O)NCCC[C@]2(F)CCCNC2)cn(Cc2ccccc2)c1=O [Example 82],≤ 100
16,"CNC(=O)c1cc(C(=O)NCCCC2CCNCC2)cn(Cc2cccc(OCCO)c2)c1=O [Example 23, 1-(3-(2-Hydroxyethoxy)benzyl)-N^3-methyl-2-oxo-N^5-(3-(piperidin-4-yl)propyl)-1,2-dihydropyridine-3,5-dicarboxamide]",≤ 100
17,"CNC(=O)c1cc(C(=O)NC[C@H]2CCCOC2)cn(Cc2ccccc2)c1=O [Example 46, (R)-1-Benzyl-N^3-methyl-2-oxo-N^5-((tetrahydro-2H-pyran-3-yl)methyl)-1,2-dihydropyridine-3,5-dicarboxamide]",100 to 1000
18,"CNC(=O)c1cc(C(=O)NCCCC2CCCN(C(=O)OC(C)(C)C)C2)cn(Cc2ccccc2)c1=O (stereo not shown) [Example 59, tert-Butyl 3-(3-(1-benzyl-5-(methylcarbamoyl)-6-oxo-1,6-dihydropyridine-3-carboxamido)propyl)piperidine-1-carboxylate]",100 to 1000
